Residue numbers refer to the chain shown, from its start. Where two headings read alike, the source gives them in different places.
Assays:
Format in all cases: cell-based
[1] = biological target: T1, wild-type Androgen Receptor (AR-wt) (Homo sapiens, UniProt P10275); assay: LNCaP-AR-wt ANT reporter assay (ARE firefly luciferase, antagonist mode); conditions: for IC50: antagonist mode, 400 pM R-1881 challenge, −Log10(IC50 [Molar]), read-out: LNCaP-AR-wt ANT pIC50 (converted); for Emax: read-out: LNCaP-AR-wt ANT MAX % Inh
T1 construct: expressed in transfected cells; host or cells: LNCaP (LNCaP AR (cs))
T1 sequence (P10275 1-920): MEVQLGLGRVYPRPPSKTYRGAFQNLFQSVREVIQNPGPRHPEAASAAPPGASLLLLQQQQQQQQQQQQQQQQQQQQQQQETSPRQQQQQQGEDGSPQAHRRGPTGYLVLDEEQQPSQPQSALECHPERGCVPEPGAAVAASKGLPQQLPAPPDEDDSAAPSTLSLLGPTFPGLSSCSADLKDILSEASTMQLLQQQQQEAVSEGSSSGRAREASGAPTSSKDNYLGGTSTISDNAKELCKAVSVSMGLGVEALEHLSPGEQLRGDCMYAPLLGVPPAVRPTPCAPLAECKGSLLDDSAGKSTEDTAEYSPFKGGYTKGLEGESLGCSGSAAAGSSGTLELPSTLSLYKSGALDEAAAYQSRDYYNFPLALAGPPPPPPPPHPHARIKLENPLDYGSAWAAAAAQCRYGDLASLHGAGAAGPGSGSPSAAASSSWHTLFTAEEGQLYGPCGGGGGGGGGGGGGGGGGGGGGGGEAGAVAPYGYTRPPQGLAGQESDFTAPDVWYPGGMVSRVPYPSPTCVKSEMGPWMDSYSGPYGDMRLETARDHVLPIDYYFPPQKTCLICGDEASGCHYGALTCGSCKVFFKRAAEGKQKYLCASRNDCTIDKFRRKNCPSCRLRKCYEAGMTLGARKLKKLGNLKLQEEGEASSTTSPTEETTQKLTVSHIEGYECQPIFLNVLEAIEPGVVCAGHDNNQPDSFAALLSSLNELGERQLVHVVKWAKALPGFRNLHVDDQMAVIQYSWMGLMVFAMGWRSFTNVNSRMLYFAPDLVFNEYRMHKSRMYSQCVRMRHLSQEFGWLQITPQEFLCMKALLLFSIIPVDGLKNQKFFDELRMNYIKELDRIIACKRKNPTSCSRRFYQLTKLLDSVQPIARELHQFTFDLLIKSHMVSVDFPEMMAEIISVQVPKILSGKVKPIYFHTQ
Summary of the method: (§1)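 Puromycin-selected pooled LNCaP populations expressing AR-wt or AR-F876L are seeded in CSS medium and treated with compound for 20-24 h at 37 °C. For antagonist testing, agonist is added at 400 pM (WT) or 600 pM (F876L). Potency values derive from least-squares fitting of luminescence RLU.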

[2] = biological target: T1, wild-type Androgen Receptor (AR-wt); assay: LNCaP-AR-wt AG reporter assay (ARE firefly luciferase, agonist mode); conditions: for Emax: read-out: LNCaP-AR-wt AG MAX % Stim
Summary of the method: (§2)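 LNCaP stable pooled lines expressing ARE-firefly luciferase, in charcoal-stripped serum medium, were exposed to compounds; antagonist mode used agonist at 400 pM (WT) or 600 pM (F876L).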

[3] = biological target: T2, F876L mutant Androgen Receptor (AR-F876L) (Homo sapiens, UniProt P10275, F877L); assay: LNCaP-AR-F876L ANT reporter assay (ARE firefly luciferase, antagonist mode); conditions: for Emax: read-out: LNCaP-AR-F876L ANT MAX % Inh; for IC50: read-out: LNCaP-AR-F876L ANT pIC50 (converted)
T2 construct: expressed in transfected cells; host or cells: LNCaP (LNCaP F876L)
T2 sequence (P10275 1-920 F877L): T1 sequence (P10275 1-920) with F877L
Summary of the method: as §1

[4] = biological target: T2, F876L mutant Androgen Receptor (AR-F876L); assay: LNCaP-AR-F876L AG reporter assay (ARE firefly luciferase, agonist mode); conditions: for Emax: read-out: LNCaP-AR-F876L AG MAX % Stim
Summary of the method: as §2

[5] = maximum % inhibition of R1881 control response over tested concentration range
[6] = agonist mode, −Log10(EC50 [Molar]), read-out: LNCaP-AR-wt AG pEC50 (converted)
[7] = maximum % stimulation (agonist response) over tested concentration range
[8] = agonist mode, −Log10(EC50 [Molar]), read-out: LNCaP-AR-F876L AG pEC50 (converted)

Row | Structure (SMILES) | IC50 [1] | IC50 [3] | Emax [1, 5] | EC50 [2, 6] | Emax [2, 7] | Emax [3, 5] | EC50 [4, 8] | Emax [4, 7] | Emax [1] | EC50 [2] | Emax [2] | Emax [3] | EC50 [4] | Emax [4]
1 | Cc1cc(N2C(=O)C3(CCC3)N(c3ccc(C4CCOCC4)cc3)C2=S)cnc1C#N [Cpd 101, 3-methyl-5-[5-oxo-8-(4-tetrahydropyran-4-ylphenyl)-7-thioxo-6,8-diazaspiro[3.4]octan-6-yl]pyridine-2-carbonitrile] | 0.479 µM | 0.363 µM |  |  |  |  |  |  | 99.4% | > 15.1 µM | 1.1% | 95.3% | > 15.1 µM | 1.7%
2 | N#Cc1ncc(N2C(=O)C3(CCC3)N(c3ccc(F)cc3)C2=S)cc1C(F)(F)F [Cpd 102, 5-[8-(4-fluorophenyl)-5-oxo-7-thioxo-6,8-diazaspiro[3.4]octan-6-yl]-3-(trifluoromethyl)pyridine-2-carbonitrile] | 0.646 µM | 0.501 µM | 101% | > 15.1 µM | 0.9% | 99.6% | > 15.1 µM | 1.9% |  |  |  |  |  | 
3 | N#Cc1ncc(N2C(=O)C3(CCC3)N(c3ccc(Oc4ccccn4)cc3)C2=S)cc1C(F)(F)F [Cpd 103, 5-[5-oxo-8-[4-(2-pyridyloxy)phenyl]-7-thioxo-6,8-diazaspiro[3.4]octan-6-yl]-3-(trifluoromethyl)pyridine-2-carbonitrile] | 0.562 µM | 0.107 µM |  |  |  |  |  |  | 29% | > 15.1 µM | 4% | 64.9% | > 15.1 µM | 2%
4 | Cc1cc(N2C(=O)C3(CCC3)N(c3ccc(-c4cncc(F)c4)cc3)C2=S)cnc1C#N [Cpd 104, 5-[8-[4-(5-fluoro-3-pyridyl)phenyl]-5-oxo-7-thioxo-6,8-diazaspiro[3.4]octan-6-yl]-3-methyl-pyridine-2-carbonitrile] | 0.129 µM | 0.012 µM | 99.7% | > 15.1 µM | 2.7% | 98.4% | > 15.1 µM | 2.2% |  |  |  |  |  | 
5 | N#Cc1ncc(N2C(=O)C3(CCC3)N(c3ccc(OCCN4CCNCC4)c(F)c3)C2=S)cc1C(F)(F)F [Cpd 105, 5-[8-[3-fluoro-4-(2-piperazin-1-ylethoxy)phenyl]-5-oxo-7-thioxo-6,8-diazaspiro[3.4]octan-6-yl]-3-(trifluoromethyl)pyridine-2-carbonitrile] | 0.575 µM | 0.49 µM | 95.7% | > 15.1 µM | 1.2% | 95.3% | > 15.1 µM | 2.3% |  |  |  |  |  | 
6 | C#CCNC(=O)c1ccc(N2C(=S)N(c3cnc(C#N)c(C(F)(F)F)c3)C(=O)C23CCC3)cc1F [Cpd 111, 4-[6-[6-cyano-5-(trifluoromethyl)-3-pyridyl]-5-oxo-7-thioxo-6,8-diazaspiro[3.4]octan-8-yl]-2-fluoro-N-prop-2-ynyl-benzamide] | 0.407 µM | 0.525 µM |  |  |  |  |  |  | 102% | > 15.1 µM | 0.5% | 94.1% | > 15.1 µM | 2.7%

Further lines, with some results ahead:

Row | IC50 [1] | IC50 [3] | Emax [1, 5] | EC50 [2, 6] | Emax [2, 7] | Emax [3, 5] | EC50 [4, 8] | Emax [4, 7] | Structure (SMILES) | Emax [1] | EC50 [2] | Emax [2] | Emax [3] | EC50 [4] | Emax [4]
7 | 0.617 µM | 0.631 µM | 101% | > 15.1 µM | 1.8% | 95.9% | > 15.1 µM | 2.4% | N#Cc1ncc(N2C(=O)C3(CCC3)N(c3cccc(F)c3F)C2=S)cc1C(F)(F)F [Cpd 106, 5-[8-(2,3-difluorophenyl)-5-oxo-7-thioxo-6,8-diazaspiro[3.4]octan-6-yl]-3-(trifluoromethyl)pyridine-2-carbonitrile] |  |  |  |  |  | 
8 | 0.562 µM | 0.162 µM | 89.1% | > 15.1 µM | 2.1% | 97.3% | > 15.1 µM | 2.4% | N#Cc1ncc(N2C(=O)C3(CCC3)N(c3ccc(Oc4ncccn4)cc3)C2=S)cc1C(F)(F)F [Cpd 107, 5-[5-oxo-8-(4-pyrimidin-2-yloxyphenyl)-7-thioxo-6,8-diazaspiro[3.4]octan-6-yl]-3-(trifluoromethyl)pyridine-2-carbonitrile] |  |  |  |  |  | 
9 | 0.813 µM | 0.389 µM | 94.5% | > 15.1 µM | 2.3% | 95.6% | > 15.1 µM | 2.5% | CN1CCN(CCCNC(=O)c2ccc(N3C(=S)N(c4cnc(C#N)c(C(F)(F)F)c4)C(=O)C34CCC4)cc2F)CC1 [Cpd 108, 4-[6-[6-cyano-5-(trifluoromethyl)-3-pyridyl]-5-oxo-7-thioxo-6,8-diazaspiro[3.4]octan-8-yl]-2-fluoro-N-[3-(4-methylpiperazin-1-yl)propyl]benzamide] |  |  |  |  |  | 
10 | 1.95 µM | 0.741 µM | 97.9% | > 15.1 µM | 0.2% | 98.4% | > 15.1 µM | 1.1% | CN1CCC(NC(=O)c2ccc(N3C(=S)N(c4cnc(C#N)c(C(F)(F)F)c4)C(=O)C34CCC4)cc2F)CC1 [Cpd 109, 4-[6-[6-cyano-5-(trifluoromethyl)-3-pyridyl]-5-oxo-7-thioxo-6,8-diazaspiro[3.4]octan-8-yl]-2-fluoro-N-(1-methyl-4-piperidyl)benzamide] |  |  |  |  |  | 
11 | 0.195 µM | 0.145 µM | 100% | > 15.1 µM | 1.3% | 100% | > 15.1 µM | 2.6% | Cc1ccc(N2C(=S)N(c3cnc(C#N)c(C(F)(F)F)c3)C(=O)C2(C)C)cc1 [Cpd 110, 5-[4,4-dimethyl-5-oxo-3-(p-tolyl)-2-thioxo-imidazolidin-1-yl]-3-(trifluoromethyl)pyridine-2-carbonitrile] |  |  |  |  |  | 
12 | 0.355 µM | 0.331 µM | 100% | > 15.1 µM | 1.1% | 97% | > 15.1 µM | 2.7% | N#Cc1ncc(N2C(=O)C3(CCC3)N(c3ccc(OC4CCOCC4)cc3)C2=S)cc1C(F)(F)F [Cpd 112, 5-[5-oxo-8-(4-tetrahydropyran-4-yloxyphenyl)-7-thioxo-6,8-diazaspiro[3.4]octan-6-yl]-3-(trifluoromethyl)pyridine-2-carbonitrile] |  |  |  |  |  | 

Reference: US20180008587A1, “THIOHYDANTOIN ANDROGEN RECEPTOR ANTAGONISTS FOR THE TREATMENT OF CANCER” (Jaressen Pharmaceutica NV, priority 2016, published 2018)
